# Measured values published in patent US9085806B2, “Methods for treating infection involving identification of a carbapanemase gene” (priority 2007, dated 2015).
# Legend:
# Test in all cases: Antimicrobial susceptibility testing, broth microdilution (CLSI)
# Assay type in all cases: cell-based
# E. coli Strain ID 301892 = conditions: Escherichia coli; Strain ID 301892 ESCCOL, ESBL positive; Mueller-Hinton broth; read-out: minimum inhibition concentration (MIC)
# Source text: (§1) Carbapenem-resistant Klebsiella and E. coli were identified by broth microdilution as described by CLSI from the BD ID/AST microbial bank (1). Wild-type (Ampicillin sensitive) E. coli ATCC 25922 (Strain ID 300960) was used through out the experiments as a negative control. Three strains previously determined to contain KPC-1, KPC-2, and KPC-3 (Strain ID 301916=KPC-1, 301917=KPC-2, 301918=KPC-3) were used as positive controls (4). […] ESBL positive strains were identified using the CLSI recommended broth microdilution assay (2). Prior to any processing or extraction, all strains were streaked out on Trypticase Soy Agar (TSA) plates containing 5% Sheep red blood cells (BD Diagnostic Systems, Sparks, Md.) and grown at 35° C. overnight.
# (§2) Antimicrobial susceptibility testing was performed using Mueller-Hinton broth (BD Diagnostic Systems, Sparks, Md.) as described by CLSI (1). Antimicrobial powders were acquired from the following companies; Ampicillin (Amp) and Cefotaxime (CTX) (Sigma Chemical Co., St. Louis, Mo.), Ceftazidime (CAZ) (Eli Lilly, Indianapolis, Ind.), Clavulanic acid (Smith-Kline, King of Prussia, Pa.), Imipenem (IPM) (Merck & Co., Rahway, N.J.).
# (§3) The BD ID/AST Microbial Bank was screened for carbapenem-resistant Klebsiella and E. coli with broth microdilution as described by CLSI (2). Klebsiella spp. and E. coli were chosen because they are the primary reservoir species for the plasmid-borne KPC gene.
# (§4) ESBL positive strains were identified using the CLSI recommended broth microdilution assay (2). Briefly, this broth microdilution assay has a two-fold dilution scheme between a defined range of the antimicrobial agent. For example, where the defined range of the antimicrobial agent is […], the two-fold dilution between wells is represented by 0.25, 0.5, 1, 2, 4, 8, and 16 μg/ml. To identify ESBL positive strains, growth is evaluated in wells containing the antimicrobial agent of interest at these various two-fold dilutions across the defined range either alone or in combination with Clavulanic acid in order to determine the MIC for the antimicrobial agent alone or in combination with Clavulanic acid. […] A wild-type E. coli Strain ID 300960 was also screened and used as a negative control for all of the real-time assays.
# [1] = system: E. coli Strain ID 301918 (KPC-3); conditions: Escherichia coli; Strain ID 301918 ESCCOL, KPC-3 positive control; Mueller-Hinton broth; read-out: minimum inhibition concentration (MIC)
# Source text: as §1, §2, §3, §4
# E. coli Strain ID 301888 = conditions: Escherichia coli; Strain ID 301888 ESCCOL, ESBL positive; Mueller-Hinton broth; read-out: minimum inhibition concentration (MIC)
# Source text: as §1, §2, §3, §4
# [2] = system: Klebsiella pneumoniae Strain ID 301920; conditions: Strain ID 301920 KLEPNEP, ESBL positive, Mueller-Hinton broth, read-out: minimum inhibition concentration (MIC)
# Source text: as §1, §2, §3, §4
# [3] = system: Klebsiella pneumoniae Strain ID 301919; conditions: Strain ID 301919 KLEPNEP, ESBL positive, Mueller-Hinton broth, read-out: minimum inhibition concentration (MIC)
# Source text: as §1, §2, §3, §4
# E. coli Strain ID 301896 = conditions: Escherichia coli; Strain ID 301896 ESCCOL, ESBL positive; Mueller-Hinton broth; read-out: minimum inhibition concentration (MIC)
# Source text: as §1, §2, §3, §4
# E. coli Strain ID 301894 = conditions: Escherichia coli; Strain ID 301894 ESCCOL, ESBL positive; Mueller-Hinton broth; read-out: minimum inhibition concentration (MIC)
# Source text: as §1, §2, §3, §4
# [4] = system: Klebsiella pneumoniae Strain ID 301916 (KPC-1); conditions: Strain ID 301916 KLEPNEP, KPC-1 positive control, Mueller-Hinton broth, read-out: minimum inhibition concentration (MIC)
# Source text: as §1, §2, §3, §4
# E. coli Strain ID 303365 = conditions: Escherichia coli; Strain ID 303365 ESCCOL, ESBL positive; Mueller-Hinton broth; read-out: minimum inhibition concentration (MIC)
# Source text: as §1, §2, §3, §4
# E. coli Strain ID 303369 = conditions: Escherichia coli; Strain ID 303369 ESCCOL; Mueller-Hinton broth; read-out: minimum inhibition concentration (MIC)
# Source text: as §1, §2, §3, §4
# E. coli Strain ID 301922 = conditions: Escherichia coli; Strain ID 301922 ESCCOL, ESBL positive; Mueller-Hinton broth; read-out: minimum inhibition concentration (MIC)
# Source text: as §1, §2, §3, §4
# [5] = system: Klebsiella pneumoniae Strain ID 301008; conditions: Strain ID 301008 KLEPNEP, Mueller-Hinton broth, read-out: minimum inhibition concentration (MIC)
# Source text: as §1, §2, §3, §4
# [6] = system: Klebsiella pneumoniae Strain ID 301917 (KPC-2); conditions: Strain ID 301917 KLEPNEP, KPC-2 positive control, ESBL positive, Mueller-Hinton broth, read-out: minimum inhibition concentration (MIC)
# Source text: as §1, §2, §3, §4
# [7] = system: Klebsiella pneumoniae Strain ID 303375; conditions: Strain ID 303375 KLEPNEP, Mueller-Hinton broth, read-out: minimum inhibition concentration (MIC)
# Source text: as §1, §2, §3, §4
# [8] = system: Klebsiella pneumoniae Strain ID 301898; conditions: Strain ID 301898 KLEPNEP, Mueller-Hinton broth, read-out: minimum inhibition concentration (MIC)
# Source text: as §1, §2, §3, §4
# [9] = system: E. coli ATCC 25922 (Strain ID 300960); conditions: Escherichia coli, ATCC25922; Strain ID 300960 ESCCOL, wild-type negative control; Mueller-Hinton broth; read-out: minimum inhibition concentration (MIC)
# Source text: as §1, §2, §3, §4
# E. coli Strain ID 301921 = conditions: Escherichia coli; Strain ID 301921 ESCCOL, ESBL positive; Mueller-Hinton broth; read-out: minimum inhibition concentration (MIC)
# Source text: as §1, §2, §3, §4
# [10] = system: Klebsiella oxytoca Strain ID 300967; conditions: Strain ID 300967 KLEOXY, Mueller-Hinton broth, read-out: minimum inhibition concentration (MIC)
# Source text: as §1, §2, §3, §4
# [11] = system: Klebsiella pneumoniae Strain ID 301891; conditions: Strain ID 301891 KLEPNEP, Mueller-Hinton broth, read-out: minimum inhibition concentration (MIC)
# Source text: as §1, §2, §3, §4
# [12] = system: Klebsiella oxytoca Strain ID 303990; conditions: Strain ID 303990 KLEOXY, Mueller-Hinton broth, read-out: minimum inhibition concentration (MIC)
# Source text: as §1, §2, §3, §4
# E. coli Strain ID 301905 = conditions: Escherichia coli; Strain ID 301905 ESCCOL; Mueller-Hinton broth; read-out: minimum inhibition concentration (MIC)
# Source text: as §1, §2, §3, §4
# [13] = system: Klebsiella pneumoniae Strain ID 300996; conditions: Strain ID 300996 KLEPNEP, ESBL positive, Mueller-Hinton broth, read-out: minimum inhibition concentration (MIC)
# Source text: as §1, §2, §3, §4
# [14] = system: Klebsiella pneumoniae Strain ID 301899; conditions: Strain ID 301899 KLEPNEP, Mueller-Hinton broth, read-out: minimum inhibition concentration (MIC)
# Source text: as §1, §2, §3, §4
# E. coli Strain ID 303364 = conditions: Escherichia coli; Strain ID 303364 ESCCOL; Mueller-Hinton broth; read-out: minimum inhibition concentration (MIC)
# Source text: as §1, §2, §3, §4
Compound,MIC (E. coli Strain ID 301892),MIC [1],MIC (E. coli Strain ID 301888),MIC [2],MIC [3],MIC (E. coli Strain ID 301896),MIC (E. coli Strain ID 301894),MIC [4],MIC (E. coli Strain ID 303365),MIC (E. coli Strain ID 303369),MIC (E. coli Strain ID 301922),MIC [5],MIC [6],MIC [7],MIC [8],MIC [9],MIC (E. coli Strain ID 301921),MIC [10],MIC [11],MIC [12],other results
"CC1(C)S[C@@H]2[C@H](NC(=O)[C@H](N)c3ccccc3)C(=O)N2[C@H]1C(=O)O [Amp, Ampicillin]",> 32 µg/mL,> 32 µg/mL,> 32 µg/mL,> 32 µg/mL,> 32 µg/mL,> 32 µg/mL,> 32 µg/mL,> 32 µg/mL,> 32 µg/mL,> 32 µg/mL,> 32 µg/mL,16 µg/mL,> 32 µg/mL,> 32 µg/mL,> 32 µg/mL,≤ 0.25 µg/mL,> 32 µg/mL,> 32 µg/mL,> 32 µg/mL,> 32 µg/mL,MIC (E. coli Strain ID 301905): > 32 µg/mL; MIC [13]: > 32 µg/mL; MIC [14]: > 32 µg/mL; MIC (E. coli Strain ID 303364): > 32 µg/mL
"CC(C)(O/N=C(\C(=O)N[C@@H]1C(=O)N2C(C(=O)[O-])=C(C[n+]3ccccc3)CS[C@H]12)c1csc(N)n1)C(=O)O [CAZ, Ceftazidime]",64 µg/mL,> 128 µg/mL,64 µg/mL,64 µg/mL,32 µg/mL,> 128 µg/mL,> 128 µg/mL,> 128 µg/mL,> 128 µg/mL,64 µg/mL,16 µg/mL,≤ 0.25 µg/mL,4 µg/mL,64 µg/mL,> 128 µg/mL,≤ 0.5 µg/mL,32 µg/mL,128 µg/mL,16 µg/mL,128 µg/mL,MIC (E. coli Strain ID 301905): 32 µg/mL; MIC [13]: 4 µg/mL; MIC [14]: > 128 µg/mL; MIC (E. coli Strain ID 303364): 128 µg/mL
"CO/N=C(\C(=O)N[C@@H]1C(=O)N2C(C(=O)O)=C(COC(C)=O)CS[C@H]12)c1csc(N)n1 [CTX, Cefotaxime]",32 µg/mL,> 64 µg/mL,32 µg/mL,> 64 µg/mL,16 µg/mL,64 µg/mL,16 µg/mL,> 64 µg/mL,> 64 µg/mL,32 µg/mL,> 64 µg/mL,≤ 0.25 µg/mL,32 µg/mL,32 µg/mL,> 64 µg/mL,≤ 0.25 µg/mL,> 64 µg/mL,> 64 µg/mL,4 µg/mL,> 64 µg/mL,MIC (E. coli Strain ID 301905): > 64 µg/mL; MIC [13]: 2 µg/mL; MIC [14]: > 64 µg/mL; MIC (E. coli Strain ID 303364): 32 µg/mL
"C[C@@H](O)[C@H]1C(=O)N2C(C(=O)O)=C(SCCN=CN)C[C@H]12 [IPM, Imipenem]",4 µg/mL,16 µg/mL,4 µg/mL,≤ 2 µg/mL,≤ 2 µg/mL,≤ 2 µg/mL,≤ 2 µg/mL,8 µg/mL,≤ 2 µg/mL,≤ 2 µg/mL,≤ 0.25 µg/mL,≤ 2 µg/mL,8 µg/mL,≤ 2 µg/mL,4 µg/mL,≤ 0.25 µg/mL,≤ 2 µg/mL,> 16 µg/mL,≤ 2 µg/mL,16 µg/mL,MIC (E. coli Strain ID 301905): 8 µg/mL; MIC [13]: 8 µg/mL; MIC [14]: 4 µg/mL; MIC (E. coli Strain ID 303364): ≤ 2 µg/mL
